Data on 6 molecules can be found in paper PMC11016064, “One substrate many enzymes virtual screening uncovers missing genes of carnitine biosynthesis in human and mouse” (Nature Communications, 2024).

The target in series [1] is T1, threonine aldolase (Tha1) (Mus musculus, UniProt Q6XPS7).
T1 sequence (Q6XPS7 41-400): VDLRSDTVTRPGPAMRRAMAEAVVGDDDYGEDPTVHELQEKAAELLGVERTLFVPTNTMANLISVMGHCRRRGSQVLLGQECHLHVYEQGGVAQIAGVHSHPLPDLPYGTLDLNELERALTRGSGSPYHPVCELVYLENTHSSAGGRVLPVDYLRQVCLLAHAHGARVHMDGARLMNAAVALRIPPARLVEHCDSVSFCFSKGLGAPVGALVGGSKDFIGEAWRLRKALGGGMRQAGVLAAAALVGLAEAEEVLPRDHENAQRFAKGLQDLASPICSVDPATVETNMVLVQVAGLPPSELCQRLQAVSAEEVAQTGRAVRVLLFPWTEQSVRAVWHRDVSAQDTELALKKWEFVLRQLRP

The target of series [2] is T2, SHMT1 (Homo sapiens, UniProt P34896).
T2 sequence (P34896 2-483): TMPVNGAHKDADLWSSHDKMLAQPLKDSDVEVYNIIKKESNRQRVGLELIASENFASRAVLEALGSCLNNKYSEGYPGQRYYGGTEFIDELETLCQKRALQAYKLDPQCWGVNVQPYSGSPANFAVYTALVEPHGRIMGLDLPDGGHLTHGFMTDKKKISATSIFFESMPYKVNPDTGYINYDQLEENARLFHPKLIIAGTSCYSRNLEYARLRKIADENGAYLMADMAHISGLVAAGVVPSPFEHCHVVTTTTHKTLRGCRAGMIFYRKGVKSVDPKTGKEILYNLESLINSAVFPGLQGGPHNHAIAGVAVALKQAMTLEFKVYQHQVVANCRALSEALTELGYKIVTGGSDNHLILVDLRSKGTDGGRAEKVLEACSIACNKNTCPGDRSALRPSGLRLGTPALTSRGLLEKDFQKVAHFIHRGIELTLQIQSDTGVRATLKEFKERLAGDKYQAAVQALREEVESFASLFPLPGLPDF
Also noted: Threonine cleavage coupled to alcohol dehydrogenase, NADH depletion at 340 nm, Michaelis-Menten fit. Particulars: substrate. As to the method: (§1) The HTMLA activity was measured by coupling the aldol cleavage of HTML with the oxidation of TMABA by NAD^+ catalyzed by TMABADH. The rate of the reaction was calculated from the rate of appearance in absorbance at 340 nm, due to the formation of NADH, using a value of ε340 = 6220 cm^−1·M^−1. The reaction was carried out using 1 µM SHMT1 or 4 µM SHMT2 in 50 mM potassium phosphate, pH 7.5, containing 1 mM EDTA, 5 mM 2-mercaptoethanol, 0.5 mM NAD^+ and 8 µM TMABADH, at 37 °C. For Tha1 (1 µM) and eTA (0.1 µM) we kept the same conditions but a different temperature (30 °C) due to their low stability at 37 °C. The rate of L-allo-threonine and threonine cleavage was measured by coupling the reaction with reduction of the product acetaldehyde by NADH and alcohol dehydrogenase. With L-allo-threonine as substrate were reduced the amount of SHMT enzymes, 0.15 µM for SHMT1 and 1 µM for SHMT2.The rate of the reaction was calculated from the rate of disappearance in absorbance at 340 nm, due to NADH depletion.

In series [3] the target is T3, SHMT2 (Homo sapiens, UniProt P34897).
T3 sequence (P34897 30-504): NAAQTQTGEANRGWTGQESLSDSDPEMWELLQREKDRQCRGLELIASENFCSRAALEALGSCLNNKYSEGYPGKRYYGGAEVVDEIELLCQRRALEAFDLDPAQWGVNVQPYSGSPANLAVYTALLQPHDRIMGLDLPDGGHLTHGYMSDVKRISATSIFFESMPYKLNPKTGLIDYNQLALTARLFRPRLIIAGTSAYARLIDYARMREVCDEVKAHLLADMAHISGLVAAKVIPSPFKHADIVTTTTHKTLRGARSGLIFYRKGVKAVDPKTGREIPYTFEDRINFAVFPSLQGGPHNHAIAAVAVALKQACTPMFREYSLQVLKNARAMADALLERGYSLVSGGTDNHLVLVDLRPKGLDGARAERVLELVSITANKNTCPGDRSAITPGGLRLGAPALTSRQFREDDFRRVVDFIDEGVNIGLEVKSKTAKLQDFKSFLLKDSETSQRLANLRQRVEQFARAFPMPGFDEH
Also noted: Threonine cleavage coupled to alcohol dehydrogenase, NADH depletion at 340 nm, Michaelis-Menten fit. As to conditions: substrate. As to the method:
as §1

Series [4] deals with T1, threonine aldolase (Tha1). In words: X-ray crystal structure (monoclinic C2 form). In kind it is binding. On the set-up: without the first 40 amino acids (predicted mitochondrial signal).
Series [5] has as its target T2, SHMT1.
Series [6] addresses T3, SHMT2.
Series [7] addresses T3, SHMT2. In words: TMABADH-coupled spectrophotometric aldolase assay (Km). Format: biochemical.
Series [8] concerns the target T4, low-specificity threonine aldolase eTA (Escherichia coli, UniProt P75823).
T4 construct: gene ltaE
In words: TMABADH-coupled spectrophotometric aldolase assay. In kind it is biochemical.

The next series concerns the target T5, KYAT1 (Homo sapiens, UniProt Q16773).
T5 sequence (Q16773 1-422): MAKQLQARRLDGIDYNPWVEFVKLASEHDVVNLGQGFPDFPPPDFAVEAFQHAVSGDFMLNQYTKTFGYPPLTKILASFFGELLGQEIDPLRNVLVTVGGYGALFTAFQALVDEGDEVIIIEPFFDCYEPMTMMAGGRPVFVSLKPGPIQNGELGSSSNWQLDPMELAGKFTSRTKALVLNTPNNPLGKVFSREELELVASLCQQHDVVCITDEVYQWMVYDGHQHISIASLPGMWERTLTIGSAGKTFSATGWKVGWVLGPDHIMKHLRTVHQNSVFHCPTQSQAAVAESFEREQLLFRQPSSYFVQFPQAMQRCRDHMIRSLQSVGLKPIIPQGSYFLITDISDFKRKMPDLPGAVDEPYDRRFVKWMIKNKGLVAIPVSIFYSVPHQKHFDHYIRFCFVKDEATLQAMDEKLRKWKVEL
In words: spectrophotometric kynurenine aminotransferase assay at […] nm, Lineweaver-Burk. In kind it is biochemical.

For series [9], the target named is T2, SHMT1. In words: TMABADH-coupled spectrophotometric aldolase assay (Km); 1H NMR. In kind it is biochemical.
Substrate in series [10]: C[N+](C)(C)CCC[C@H](O)[C@H](N)C(=O)[O-]
The description is as above. Format: biochemical, Mus musculus. As to conditions: PLP.

Substrate in series [11]: C[C@@H](O)[C@H](N)C(=O)O
The experiment in a line: purified protein, by the assay type. On the set-up: Threonine cleavage coupled to alcohol dehydrogenase, NADH depletion at 340 nm, Michaelis-Menten fit. As to conditions: pH 7.5. On the procedure: as §1

Substrate in series [12]: C[C@H](O)[C@H](N)C(=O)O
The experiment in a line: purified protein, by the assay type. On the set-up: Threonine cleavage coupled to alcohol dehydrogenase, NADH depletion at 340 nm, Michaelis-Menten fit. As to conditions: pH 7.5. On the procedure:
as §1

Series [13] concerns the molecule itself. The experiment in a line: crystal structure; sitting drop at 18 °C, 0.2 M sodium nitrate, 0.1 M Bis-Tris propane pH 8.5, 20% w/v PEG 3350; space groups F222 (one molecule in the ASU) and C2 (two molecules in the ASU); tetramer formed by crystallographic symmetries.

Like-named read-outs stand apart in the source and are kept apart here.

T4 sequence (P75823 whole entry): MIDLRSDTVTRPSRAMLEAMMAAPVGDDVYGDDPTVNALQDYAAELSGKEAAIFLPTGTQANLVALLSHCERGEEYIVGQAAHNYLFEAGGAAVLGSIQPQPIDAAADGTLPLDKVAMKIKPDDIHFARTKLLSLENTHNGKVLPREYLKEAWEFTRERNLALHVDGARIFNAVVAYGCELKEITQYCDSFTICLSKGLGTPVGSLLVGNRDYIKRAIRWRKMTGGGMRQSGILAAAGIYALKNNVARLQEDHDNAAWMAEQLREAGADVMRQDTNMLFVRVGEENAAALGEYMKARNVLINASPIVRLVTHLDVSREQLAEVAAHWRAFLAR

Broadly, the Km is the substrate concentration at which the rate is half of its maximum. Take `C[C@@H](O)[C@H](N)C(=O)O` [L-threonine]: the “alcohol dehydrogenase-coupled spectrophotometric aldolase assay (kcat/Km)” value in series [1] was ~ 10^1 s^-1 M^-1. Moreover, the Km worked out at 36.5 ± 2.48 mM on SHMT1 [2] and 41.2 ± 3.43 mM at SHMT2 [3].

In the case of `Cc1ncc(COP(=O)(O)O)c(C=O)c1O` [PLP], the “X-ray crystal structure (monoclinic C2 form)” value in series [4] is given as “In Tha1, the PLP cofactor, bound to Lys242, is stabilized in the active site by a network of hydrogen bonds”.

Turning to `C[C@H](O)[C@H](N)C(=O)O` [L-allo-threonine], the “alcohol dehydrogenase-coupled spectrophotometric aldolase assay (kcat/Km)” value at SHMT1 [5] is ~ 10^4 s^-1 M^-1; in series [1], ~ 10^2 s^-1 M^-1; on SHMT2 [6] it was ~ 10^2 s^-1 M^-1. Also, the results for the Michaelis-Menten constant (Km) on SHMT1 [2] and at SHMT2 [3] were 0.226 ± 0.017 mM and 1.34 ± 0.115 mM, respectively.

The term Ki denotes the equilibrium dissociation constant of an inhibitor or competing ligand from its target. A lower Ki goes with tighter binding. With `C[N+](C)(C)CCC[C@H](O)[C@H](N)C(=O)[O-]` [HTML], the Km worked out at 0.8 mM on SHMT2 [7] and 3.79 mM on SHMT1 [9]. Further, the “TMABADH-coupled spectrophotometric aldolase assay” value in series [8] is “Characterization of its catalytic efficiency for L-allo-threonine and HTML, showed high activity with both substrates”. The molecule further registered an inhibition constant (Ki) at KYAT1 of 4 mM.

B1: threonine aldolase (Tha1) (Mus musculus) (protein)
chain: VDLRSDTVTRPGPAMRRAMAEAVVGDDDYGEDPTVHELQEKAAELLGVERTLFVPTNTMANLISVMGHCRRRGSQVLLGQECHLHVYEQGGVAQIAGVHSHPLPDLPYGTLDLNELERALTRGSGSPYHPVCELVYLENTHSSAGGRVLPVDYLRQVCLLAHAHGARVHMDGARLMNAAVALRIPPARLVEHCDSVSFCFSKGLGAPVGALVGGSKDFIGEAWRLRKALGGGMRQAGVLAAAALVGLAEAEEVLPRDHENAQRFAKGLQDLASPICSVDPATVETNMVLVQVAGLPPSELCQRLQAVSAEEVAQTGRAVRVLLFPWTEQSVRAVWHRDVSAQDTELALKKWEFVLRQLRP
notes: without the first 40 amino acids (predicted mitochondrial signal)
Broadly, the kcat/Km is the second-order rate constant that governs catalysis at low substrate concentration. Take B1: the Km in series [10] stood at 0.169 mM; in series [11], 37.531 ± 10.873 mM; in series [12], 8.236 ± 0.86 mM. Besides, in [12], the kcat/Km turned out to be 238 ± 26.2 M⁻¹ s⁻¹.

B2: mouse threonine aldolase (Tha1), truncated form without the first 40 amino acids (enzyme, UniProt Q6XPS7 41-400, looked up)
chain: VDLRSDTVTRPGPAMRRAMAEAVVGDDDYGEDPTVHELQEKAAELLGVERTLFVPTNTMANLISVMGHCRRRGSQVLLGQECHLHVYEQGGVAQIAGVHSHPLPDLPYGTLDLNELERALTRGSGSPYHPVCELVYLENTHSSAGGRVLPVDYLRQVCLLAHAHGARVHMDGARLMNAAVALRIPPARLVEHCDSVSFCFSKGLGAPVGALVGGSKDFIGEAWRLRKALGGGMRQAGVLAAAALVGLAEAEEVLPRDHENAQRFAKGLQDLASPICSVDPATVETNMVLVQVAGLPPSELCQRLQAVSAEEVAQTGRAVRVLLFPWTEQSVRAVWHRDVSAQDTELALKKWEFVLRQLRP
modifications: PLP cofactor bound to Lys242 (visible only in the monoclinic structure)
notes: Threonine aldolase Tha1, Mus musculus, CDS NM_027919.4 without the first 40 amino acids (predicted mitochondrial signal); The plasmid was bought from GenScript; also called Htmla; hydroxytrimethyllysine aldolase; source: E. coli BL21 with pGRO7 (GroEL/GroES co-expressed), purified (HisTrap, Superdex 200 size exclusion); not shown: His tag (from the vector pET-28b)
As a reminder, the stoichiometry N is a count of units in the complex or per binding partner. As to B2, the “stoichiometry N” value in [13] was 4.
